Literature values, collected in patent US20160128954A1 (Raptor Pharmaceuticals Inc., priority 2014, published 2016).

Columns and labels:
[1] = system: mice with the gene mutation for Huntington's disease (HD); conditions: mouse, in vivo
[2] = in vivo
[3] = system: circulating white blood cells
[4] = system: HD patients; conditions: five patients over 2 weeks

SMILES	effect on tremors and life span [1]	crossing of the blood-brain barrier [2]	time to decrease in leukocyte cystine ([3]; delivery into the small intestine (WO 2007/089670))	depletion of intracellular cystine ([3]; taken regularly, measured in circulating white blood cells)	efficacy in HD [4]
NCCSSCCN [cystamine, Cystamine]	alleviate tremors and prolong life	does not, or corsses less efficiently than cysteamine	–	–	–
NCCS [cysteamine, Cysteamine (HS—CH2—CH2—NH2)]	–	crosses the blood-brain barrier	within an hour	up to 90%	no efficacy
